Key:
Assay type in all cases: biochemical
[1] = molecular target: T1, catalytic domain human MMP-14 (Homo sapiens, UniProt P50281); experiment: MMP-14 fluorogenic inhibition assay; conditions: read-out: Calculated Ki(nM) MMP-14
T1 construct: made in house
Experimental: (§1) All enzymes were pre-activated at 37° C. with aminophenylmercuric acetate (APMA) or trypsin before being made up to the final concentrations used in the assay. MMP-1 (30 nM) was activated with 0.93 mM APMA for 20 minutes, MMP-2 (30 nM) was activated with 1.32 mM APMA for 1 hour, MMP-3 (1010 nM) was activated with 1.81 mM APMA for 3 hours or heat activated at 55° C. for three hours, MMP-9 (100 nM) was activated with 2 mM APMA for 2 hours, human MMP-13 (100 nM) was activated with 2 mM APMA for 2 hours, and MMP-14 (900 nM) was activated with 0.9 ng/ml trypsin for 25 minutes, followed by the addition of 4.5 ng/ml trypsin inhibitor.
(§2) For MMP-1, the assay buffer used was 50 mM Tris, 200 mM NaCl, 5 mM CaCl2, 20 μM ZnCl2, 0.05% (w/v) Brij 35, pH 7.5. […] For MMP-13, the assay buffer used was 50 mM Tris, pH 7.5, 200 mM NaCl, 5 mM CaCl2, […] and 0.02% (w/v) Brij 35. For MMP-14, the assay buffer used was 50 mM Tris, 100 mM NaCl, 10 mM CaCl2, 0.25% (w/v) Brij 35, pH 7.5.
MMP-14 inhibition was assayed by incubating activated catalytic domain human MMP-14 at 1 nM in assay buffer with 10 μM Mca-Pro-Leu-Gly-Leu-Dpa-Ala-Arg-NH2 and six concentrations of inhibitor. The incubation was performed at 37° C. for 60 minutes.
(§3) The final assay concentrations of inhibitors used in the MMP-1 assays to determine Ki were 50, 40, 30, 20, 10 and 5 μM. For MMP-2, the final assay concentrations of inhibitors used were 1000, 800, 600, 400, 200 and 100 nM. For MMP-3, the final assay concentrations of inhibitors used were 5, 4, 3, 2, 1 and 0.5 nM. For MMP-9 and MMP-14, the final assay concentrations of inhibitors used were 5, 4, 3, 2, 1 and 0.5 μM.
(§4) All assays were carried out in a black 96-well plate with a final volume of 100 μl in each well. Inhibitors were dissolved in dimethylsulphoxide (DMSO) to 1 mM. […] For MMP-2, MMP-3, MMP-9 and MMP-14, fluorescence was read every 2 minutes at […] and 393 nm γem for 1 hour using a Fluorostar fluorimeter (BMG) with BIOLISE software. For MMP-1 assays, the filters used were 355 nm γex and 440 nm γem; fluorescence was read every 2 minutes for 1 hour. […]

[2] = molecular target: T2, MMP-3 (Homo sapiens, UniProt P08254); experiment: Reduction of MMP-3-catalysed degradation of KGF-2; conditions: MMP-3 / KGF-2, read-out: Percentage inhibition of proteolysis
T2 construct: made in house

[3] = molecular target: T3, MMP-13 (Homo sapiens, UniProt P45452); experiment: Reduction of MMP-13-catalysed degradation of KGF-2; conditions: MMP-13 / KGF-2, read-out: Percentage inhibition of proteolysis
T3 construct: made in house

[4] = molecular target: T4, catalytic domain of human MMP-9 (Homo sapiens, UniProt P14780); experiment: MMP-9 fluorogenic inhibition assay; conditions: read-out: Calculated Ki(nM) MMP-9
T4 sequence (P14780 with tags, fused parts or gaps DEL216-390 limits assumed): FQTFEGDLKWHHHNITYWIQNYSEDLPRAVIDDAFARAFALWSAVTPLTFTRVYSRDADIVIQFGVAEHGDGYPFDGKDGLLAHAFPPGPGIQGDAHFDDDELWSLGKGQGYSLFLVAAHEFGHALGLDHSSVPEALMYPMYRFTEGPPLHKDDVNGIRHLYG
Experimental: as §1, §2
MMP-2, MMP-3 and MMP-9 inhibition was assayed by incubating activated catalytic domain of human MMP-2, MMP-3 and MMP-9 at 1 nM in assay buffer with 5 μM substrate Mca-Arg-Pro-Lys-Pro-Tyr-Ala-Nva-Trp-Met-Lys(Dnp)-NH2, and six different concentrations of inhibitor. The incubation was performed at 37° C. for 60 minutes.
as §3
as §4, with “well.” for “well. Inhibitors were dissolved in dimethylsulphoxide (DMSO) to 1 mM.”

T2 sequence (P08254 100-272 limits assumed): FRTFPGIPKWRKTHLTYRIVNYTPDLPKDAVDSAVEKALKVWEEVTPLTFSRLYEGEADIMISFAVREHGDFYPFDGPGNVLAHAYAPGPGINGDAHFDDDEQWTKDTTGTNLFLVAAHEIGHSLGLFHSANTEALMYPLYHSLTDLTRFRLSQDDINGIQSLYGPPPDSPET

COC[C@@H](NC(=O)[C@@H](NC(=O)[C@H](CCCc1ccc(-c2cccc(OC)c2)c(C)c1)CC(=O)O)C(C)(C)C)c1ccccc1 [compound 9454, (3R)-3-({[(1S)-2,2-Dimethyl-1-({[(1S)-2-methoxy-1-phenylethyl]amino}carbonyl)propyl]amino}carbonyl)-6-(3′-methoxy-2-methylbiphen-4-yl)hexanoic acid]
Ki [1]: 35500 nM | inhibition at 0.1 µM ([2]; inhibitor 0.1 μM): 45% | inhibition at 1 µM ([2]; inhibitor 1 μM): 30% | inhibition at 10 µM ([2]; inhibitor 10 μM): 62% | inhibition at 100 µM ([2]; inhibitor 100 μM): 68% | inhibition at 0.1 µM ([3]; inhibitor 0.1 μM): 1.6% | inhibition at 1 µM ([3]; inhibitor 1 μM): 10% | inhibition at 10 µM ([3]; inhibitor 10 μM): 23.7% | inhibition at 100 µM ([3]; inhibitor 100 μM): 82.9% | Ki [4]: 52400 nM

Source: patent publication US20050026836A1, “Composition for the treatment of damaged tissue” (priority 1999, published 2005)
